Earlier results on 2 compounds are cited in US12478612B2 (CinDome Pharma, Inc., priority 2017, dated 2025).

For data set [1] the following is noted: weak base.

Like-named read-outs stand apart in the source and are kept apart here.

With “5-chloro-1-(1-[3-(2-oxo-2,3-dihydro-1H-benzo[d]imidazol-1-yl)propyl]piperidin-4-yl)-1H-benzo[d]imidazol-2(3H)-one [Domperidone]”, the entries for the “Human plasma protein binding” value in the data set with Human plasma protein (10 ng/ml tritiated domperidone) and with Human plasma protein (100 ng/ml tritiated domperidone) were 91.7% and 93.0%, respectively.
What is called pKa is the negative logarithm of the acid dissociation constant. For `O=c1[nH]c2ccccc2n1CCCN1CCC(n2c(=O)[nH]c3cc(Cl)ccc32)CC1` [Domperidone, 5-chloro-1-(1-[3-(2-oxo-2,3-dihydro-1H-benzo[d]imidazol-1-yl)propyl]piperidin-4-yl)-1H-benzo[d]imidazol-2(3H)-one], the pKa in data set [1] is on record as 7.89.
